In patent publication US20250346613A1, “BORIC ACID PROTEASOME INHIBITOR AND USE THEREOF” (ARTIVILA BIOPHARMA, priority 2022, published 2025):

Experiments:
[1] = background statement; cannot be used orally; cited from earlier work
[2] = Blood concentration measurement of orally-administrated mice; type: in vivo, C57BL/6JNifdc mice; conditions: C57BL/6JNifdc, mouse, plasma, oral, 30 mg/kg
Protocol: The C57BL/6JNifdc mice used in this experiment were provided by Zhejiang Vital River Laboratory Animal Technology Co., Ltd. The compounds were dissolved in DMSO/Solutol/Saline (v/v/v=10/10/80) as a stock solution (3 mg/mL). The stock solution was administrated orally to 6 C57BL/6JNifdc mice at a dose of 30 mg/kg. Blood was collected from the orbital venous plexus at 0.5 h, 1 h, 1.5 h, and 2 h after oral administration.
Approximately 200 μL of blood samples were collected into EDTAK2 Blood Collection tubes and then immediately centrifuged at 10,000 rpm for 5 min. 66 μL of plasma supernatant was added with 198 μL of acetonitrile (Energy), the resulting mixture was shaken on a vortex for 5 min, and then immediately centrifuged at 13000 rpm for 8 min. 200 μL of supernatant was taken for blood compound concentration measurement.
The compound was accurately weighed and dissolved in acetonitrile to a concentration of 100 μg/mL. 50 μL of compound was pipetted and added to 4.95 mL of acetonitrile/water (v/v=3/1) solution to obtain 1000 ng/mL mother liquid. 650 μL of the mother liquid was taken and sequentially diluted with a solution of acetonitrile/water (v/v=3/1) in a 2-fold gradient to obtain standard samples with various concentrations of 500 ng/mL, 250 ng/mL, 125 ng/mL, 62.5 ng/mL, and 31.25 ng/mL.
Standard solutions with concentrations of 1000 ng/mL, 500 ng/mL, 250 ng/mL, 125 ng/mL, 62.5 ng/mL, and 31.25 ng/mL were measured by using LC-MS (LC-MS 2020+LC-2030 Plus, Shimadzu) SIM mode to obtain a calibration curve. The treated blood samples were measured by this method and then subjected to quantitative analysis by using the calibration curve to obtain compound concentration data of each treated blood sample.
The data were exported and the average blood compound concentration at each sampling time was calculated.
Blood compound concentration=compound concentration in treated blood sample×4/molecular weight of the compound. The average blood compound concentration is the average of the compound concentrations in the blood at each sampling time.

[3] = target: T1, β5i subunit of the 20S proteasome (Homo sapiens, UniProt P20618+P28062); assay: Proteasome inhibitory activity, β5i subunit (Raji cells treated with compound, lysed, Ac-ANW-AMC substrate); type: cell-based; conditions: proteasome from Raji cells incubated with compound 4 h
T1 construct: The proteasome tested in the present disclosure was derived from Raji cells; endogenous in cells; host or cells: Raji cells
Summary of the method: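 Raji cells were treated for 4 h at 37 °C with compound (from 1 μM, 3-fold, 8 concentrations), then lysed. Lysate activity was read 10 min at 37 °C with Ac-ANW-AMC (β5i) or Suc-LLVY-AMC (β5c) at 345/445 nm. Percent inhibition was relative to DMSO-treated lysate.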

MM.1S cell strain = assay: Inhibitory activity of cell strain (CellTiter-Glo); type: cell-based; conditions: Homo sapiens, MM1.S, 72 h incubation
Summary of the method: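 Cells seeded at 1×10^5 per well in RPMI1640 complete medium for 24 h, then treated 72 h at 37 °C, 5% CO2 with 3-fold dilutions, final 5×10^−7 M down to 2.29×10^−10 M. CellTiter-Glo luminescence; inhibition calculated against DMSO-only cells and medium-only blanks.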

[4] = target: T2, β5c subunit of the 20S proteasome (Homo sapiens, UniProt P20618+P28074); assay: Proteasome inhibitory activity, β5c subunit (Raji cells treated with compound, lysed, Suc-LLVY-AMC substrate); type: cell-based; conditions: proteasome from Raji cells incubated with compound 4 h
T2 construct: The proteasome tested in the present disclosure was derived from Raji cells; endogenous in cells; host or cells: Raji cells
Excerpt: In the present disclosure, the fluorescent peptide substrate Ac-Ala-Asn-Trp-AMC (abbreviated as Ac-ANW-AMC) and the […] kit containing a fluorescent peptide substrate Suc-Leu-Leu-Val-Tyr-AMC (abbreviated as Suc-LLVY-AMC) (Promega, Item No. G8660) were used to detect the activities of the β5i subunit and β5c subunit of the 20S proteasome, respectively.
The proteasome tested in the present disclosure was derived from Raji cells, the fluorescent substrate Ac-ANW-AMC was purchased from Roche company, and other reagents were purchased from Sigma company. The experimental system was divided into two parts of cell lysis system and enzyme reaction system. […] The starting concentration of the compound (inhibitor) was 1 μM. It was diluted in a 3-fold serial dilution to a total of 8 concentrations, that is, the administration concentration can be 1 μM, 0.333 μM, 0.111 μM . . . , respectively, and the specific experimental process was described below.
Raji cells (1×10^6 cells) cryopreserved in liquid nitrogen were thawed rapidly in a water bath at 37° C. The cell pellet was transferred to a 15 mL centrifuge tube, added with 9 mL of fresh medium (Gibco RPMI1640 added with 10% fetal bovine serum and 1% double antibiotics), centrifuged at 120 g for 5 min, inoculated to 25 mL cell culture flasks, and passaged once every 2-3 days.
The compound was weighed and dissolved in DMSO to a concentration of 10 mM. The compound was then sequentially diluted to concentrations of 200 μM, 66.67 μM, 22.22 μM, 7.41 μM, 2.47 μM, 0.82 μM, 0.27 μM, and 0.091 μM with fresh medium. Raji cells in a good growth status were inoculated into a 48-well cell culture plate at 7×10^5 cells/mL.
Raji cells in a good growth status were taken and counted. They were then inoculated to a 48-well cell culture plate at 7×10^5 cells/mL. Each 5 μL of the various concentrations of diluted compounds above were taken and added to the culture plate inoculated with cells, and the lowest concentration of compound was 0 μM. The drug bortezomib (Velcade) and ONX-0914 were used as the positive control compounds. All cells were incubated at 37° C. for 4 h.
The compound-treated cells were sequentially transferred into 1.5 mL centrifuge tubes, centrifuged at 10000 rpm for 2 min, and the supernatants were removed. The cell pellet was resuspended in 1 mL of PBS, centrifuged at 10000 rpm for 2 min, and the supernatant was removed. Cells were resuspended by adding 100 μL of cell lysate (50 mM Tris of pH 7.5, 150 mM NaCl, 5 mM MgCl2, 5 mM ATP, 1 mM DTT, 0.01% NP-40, 1 mM Digitonin, and Cocktail), placed in an ice bath for 30 min, and centrifuged at 13000 rpm for 10 min.
2 mg of fluorescent peptide substrate AC-ANW-AMC was dissolved in 424.7 μL of DMSO to obtain an 8 mM stock solution, and stored at −20° C. The stock solution was diluted 100-fold to a final concentration of […] for use in the reaction system. The fluorescent peptide substrate Suc-LLVY-AMC was prepared according to the instructions of the Promega kit.
Each 20 μL of the prepared proteasome solution above was added to a 96-well white luciferase microplate and added with 25 μL of AC-ANW-AM substrate buffer solution (50 mM Tris of pH 7.5, 150 mM NaCl, 5 mM MgCl2, 5 mM ATP, 80 uM Ac-ANW-AMC and 1 mM DTT) and 25 μL of Suc-LLVY-AMC substrate buffer solution for 10 min of reaction at 37° C. in the dark. Fluorescence values were read at 345 nm/445 nm by using a fluorence microplate reader.
The data were exported and the inhibition rate in percentage was calculated according to the following formula: Inhibition rate=(maximum signal value-compound signal value)/(maximum signal value−blank signal value)×100%.
Where the maximum signal was obtained from cell lysates treated with DMSO only, and the blank signal was obtained from wells containing only lysates.

SMILES	bioavailability (oral) [1]	concentration at 0.5 h ([2]; 0.5 h, read-out: Average blood compound concentration (μM) 0.5 h) [µM]	concentration at 1 h ([2]; 1.0 h, read-out: Average blood compound concentration (μM) 1.0 h) [µM]	concentration at 1.5 h ([2]; 1.5 h, read-out: Average blood compound concentration (μM) 1.5 h) [µM]	concentration at 2 h ([2]; 2.0 h, read-out: Average blood compound concentration (μM) 2.0 h) [µM]	IC50 [3] [nM]	IC50 (MM.1S cell strain) [nM]	IC50 [4] [nM]
CC(C)C[C@H](NC(=O)[C@H](Cc1ccccc1)NC(=O)c1cnccn1)B(O)O [Bortezomib, bortezomib, reference compound]	low bioavailability	2	1.3	1	0.9	–	–	–
CC(C(=O)NCc1ccc(Cl)cc1Cl)C(=O)N[C@@H](Cc1coc2ccccc12)B(O)O (stereo partly drawn) [Example 60, ((1R)-2-(benzofuran-3-yl)-1-(3-((2,4-dichlorobenzyl)amino)-2-methyl-3-oxopropionamido)ethyl) boric acid]	–	–	–	–	–	≤ 50	≤ 50	≤ 50
COc1cccc(CNC(=O)CC(=O)N[C@@H](Cc2coc3ccccc23)B(O)O)c1 [Example 46, (R)-(2-(benzofuran-3-yl)-1-(3-((3-methoxybenzyl)amino)-3-oxopropionamido)ethyl)boric acid]	–	–	–	–	–	≤ 50	≤ 50	≤ 50
Cc1ccc(CNC(=O)/C=C/C(=O)N[C@@H](Cc2ccc(C)cc2)B(O)O)cc1 [Example 10]	–	–	–	–	–	50 to 200	200 to 500	50 to 200
COc1cccc(CNC(=O)C(C(=O)N[C@@H](Cc2ccc(C)cc2)B(O)O)C(C)C)c1 (stereo partly drawn) [Example 87, ((1R)-1-(2-((3-methoxybenzyl)carbamoyl)-3-methylbutanamido)-2-(p-tolyl)ethyl)boric acid]	–	–	–	–	–	≤ 50	≤ 50	≤ 50
COc1cccc(CNC(=O)C(CC2CC2)C(=O)N[C@@H](Cc2ccc(C)cc2)B(O)O)c1 (stereo partly drawn) [Example 80, ((1R)-1-(2-(cyclopropylmethyl)-3-((3-methoxybenzyl)amino)-3-oxopropionamido)-2-(p-tolyl)ethyl)boric acid]	–	–	–	–	–	≤ 50	≤ 50	≤ 50
CC(C(=O)Nc1ccccc1)C(=O)N[C@@H](Cc1ccccc1)B(O)O (stereo partly drawn) [Example 47, ((1R)-1-(2-methyl-3-oxo-3-(phenylamino)propionylamino)-2-phenylethyl)boronic acid]	–	–	–	–	–	≤ 50	200 to 500	50 to 200
CC(C)C[C@H](NC(=O)C(C)C(=O)NC1CCCCC1)B(O)O (stereo partly drawn) [Example 41, ((1R)-1-(3-(cyclohexylamino)-2-methyl-3-oxopropionamido)-3-methylbutyl)boric acid]	–	–	–	–	–	≤ 50	50 to 200	50 to 200
Cc1ccc(C[C@H](NC(=O)C(C)(F)C(=O)NCc2cccc(-c3ccccc3)n2)B(O)O)cc1 (stereo partly drawn) [Example 56, ((1R)-1-(2-fluoro-2-methyl-3-oxo-3-(((6-phenylpyridin-2-yl)methyl)amino)propionylamino)-2-(p-tolyl)ethyl)boric acid]	–	–	–	–	–	≤ 50	50 to 200	≤ 50
O=C(CC(=O)N[C@@H](Cc1ccccc1)B(O)O)NCc1cccc(-c2ccccc2)c1 [Example 44, (R)-(1-(3-(([1,1′-biphenyl]-3-ylmethyl)amino)-3-oxopropionamido)-2-phenylethyl)boronic acid]	–	–	–	–	–	≤ 50	≤ 50	≤ 50
CC(C(=O)NCc1cccc(-c2ccccc2)n1)C(=O)N[C@@H](Cc1ccc(-c2ccccc2)cc1)B(O)O (some centres unmarked) [Example 58]	–	–	–	–	–	≤ 50	50 to 200	≤ 50
